Measurements reported in the NIST ThermoML archive (doi:10.1007/s10765-008-0491-0).
Numbers after ± are expanded uncertainties.

Assay: xn = mol fraction of the nth substance listed
Conditions: 101 kPa, Liquid; for speed of sound: Sing-around technique in a fixed-path interferometer; for mass density: Vibrating tube method; for viscosity: Capillary tube (Ostwald / Ubbelohde) method

CCCCCCCCO [octan-1-ol] + CCCCCCCCCCCCCCCC
x1 = 1
Conditions | mass density [kg/m3] | speed of sound [m/s] | viscosity [mPa·s]
293.15 K | 821.813 ± 0.42 | 1348 ± 0.8 | –
298.15 K | – | – | 7.508 ± 0.042
303.15 K | 818.796 ± 0.42 | 1330.8 ± 0.8 | 6.344 ± 0.036
308.15 K | 815.286 ± 0.42 | 1314.1 ± 0.8 | 5.363 ± 0.032

CCCCCCCCCCCCCCCC [hexadecane] + CCCCCCCCO
Conditions | mass density, 293.15 K [kg/m3] | mass density, 303.15 K [kg/m3] | mass density, 308.15 K [kg/m3] | speed of sound, 293.15 K [m/s] | speed of sound, 303.15 K [m/s] | speed of sound, 308.15 K [m/s] | viscosity, 298.15 K [mPa·s] | viscosity, 303.15 K [mPa·s] | viscosity, 308.15 K [mPa·s]
x2 = 0 | 770.456 ± 0.42 | 766.981 ± 0.42 | 763.52 ± 0.42 | 1338.6 ± 0.8 | 1320 ± 0.8 | 1301.7 ± 0.8 | 3.041 ± 0.019 | 2.706 ± 0.017 | 2.409 ± 0.015
x2 = 0.0461 | 771.581 ± 0.42 | 768.09 ± 0.42 | 764.586 ± 0.42 | 1337 ± 0.8 | 1318.4 ± 0.8 | 1299.9 ± 0.8 | 3.073 ± 0.019 | 2.748 ± 0.017 | 2.402 ± 0.015
x2 = 0.1039 | 773.103 ± 0.42 | 769.605 ± 0.42 | 766.078 ± 0.42 | 1335.7 ± 0.8 | 1317.1 ± 0.8 | 1298.7 ± 0.8 | 3.089 ± 0.019 | 2.741 ± 0.017 | 2.399 ± 0.015
x2 = 0.1547 | 774.574 ± 0.42 | 771.039 ± 0.42 | 767.495 ± 0.42 | 1334.7 ± 0.8 | 1316.1 ± 0.8 | 1297.7 ± 0.8 | 3.096 ± 0.019 | 2.728 ± 0.017 | 2.406 ± 0.015
x2 = 0.1944 | 775.766 ± 0.42 | 772.218 ± 0.42 | 768.68 ± 0.42 | 1334.3 ± 0.8 | 1315.8 ± 0.8 | 1297.4 ± 0.8 | 3.107 ± 0.019 | 2.728 ± 0.017 | 2.419 ± 0.015
x2 = 0.2685 | 778.197 ± 0.42 | 774.63 ± 0.42 | 771.077 ± 0.42 | 1333.7 ± 0.8 | 1315.3 ± 0.8 | 1296.9 ± 0.8 | 3.175 ± 0.019 | 2.773 ± 0.017 | 2.473 ± 0.015
x2 = 0.3383 | 780.693 ± 0.42 | 777.145 ± 0.42 | 773.575 ± 0.42 | 1333.5 ± 0.8 | 1315.1 ± 0.8 | 1296.8 ± 0.8 | 3.29 ± 0.02 | 2.881 ± 0.018 | 2.561 ± 0.016
x2 = 0.4099 | 783.479 ± 0.42 | 779.937 ± 0.42 | 776.383 ± 0.42 | 1333.3 ± 0.8 | 1314.9 ± 0.8 | 1296.8 ± 0.8 | 3.472 ± 0.021 | 3.041 ± 0.019 | 2.688 ± 0.017
x2 = 0.4981 | 787.31 ± 0.42 | 783.781 ± 0.42 | 780.228 ± 0.42 | 1333.5 ± 0.8 | 1315.3 ± 0.8 | 1297.2 ± 0.8 | 3.768 ± 0.023 | 3.307 ± 0.02 | 2.896 ± 0.018
x2 = 0.6017 | 792.441 ± 0.42 | 788.911 ± 0.42 | 785.346 ± 0.42 | 1334.2 ± 0.8 | 1316.2 ± 0.8 | 1298.4 ± 0.8 | 4.223 ± 0.026 | 3.681 ± 0.022 | 3.218 ± 0.02
x2 = 0.6927 | 797.621 ± 0.42 | 794.075 ± 0.42 | 790.488 ± 0.42 | 1335.8 ± 0.8 | 1317.9 ± 0.8 | 1300.2 ± 0.8 | 4.714 ± 0.028 | 4.086 ± 0.025 | 3.554 ± 0.022
x2 = 0.7963 | 804.426 ± 0.42 | 800.846 ± 0.42 | 797.284 ± 0.42 | 1338.5 ± 0.8 | 1320.9 ± 0.8 | 1303.4 ± 0.8 | 5.384 ± 0.032 | 4.663 ± 0.028 | 4.008 ± 0.024
x2 = 0.8445 | 808.003 ± 0.42 | 804.438 ± 0.42 | 800.882 ± 0.42 | 1340.1 ± 0.8 | 1322.6 ± 0.8 | 1305.3 ± 0.8 | 5.757 ± 0.034 | 4.992 ± 0.03 | 4.251 ± 0.026
x2 = 0.895 | 812.077 ± 0.42 | 808.561 ± 0.42 | 805.017 ± 0.42 | 1342.2 ± 0.8 | 1324.9 ± 0.8 | 1307.8 ± 0.8 | 6.219 ± 0.036 | 5.383 ± 0.032 | 4.54 ± 0.027
x2 = 0.9529 | 817.221 ± 0.42 | 813.871 ± 0.42 | 810.331 ± 0.42 | 1344.9 ± 0.8 | 1327.9 ± 0.8 | 1310.9 ± 0.8 | 6.86 ± 0.039 | 5.883 ± 0.034 | 4.944 ± 0.03

CC(C)CCCC(C)CCCC(C)CCCCC(C)CCCC(C)CCCC(C)C (stereo not drawn) [2,6,10,15,19,23-hexamethyltetracosane] + CCCCCCCCO
Conditions | mass density, 293.15 K [kg/m3] | mass density, 303.15 K [kg/m3] | mass density, 308.15 K [kg/m3] | speed of sound, 293.15 K [m/s] | speed of sound, 303.15 K [m/s] | speed of sound, 308.15 K [m/s] | viscosity, 298.15 K [mPa·s] | viscosity, 303.15 K [mPa·s] | viscosity, 308.15 K [mPa·s]
x2 = 0 | 805.122 ± 0.42 | 801.912 ± 0.42 | 798.709 ± 0.42 | 1381.9 ± 0.9 | 1364.1 ± 0.8 | 1346.5 ± 0.8 | 28.26 ± 0.14 | 22.09 ± 0.11 | 17.77 ± 0.09
x2 = 0.0596 | 805.175 ± 0.42 | 801.944 ± 0.42 | 798.711 ± 0.42 | 1379.9 ± 0.9 | 1362.1 ± 0.8 | 1344.1 ± 0.8 | 24.18 ± 0.12 | 19.21 ± 0.097 | 15.49 ± 0.08
x2 = 0.1053 | 805.299 ± 0.42 | 802.053 ± 0.42 | 798.798 ± 0.42 | 1378.5 ± 0.9 | 1360.4 ± 0.8 | 1343.1 ± 0.8 | 21.92 ± 0.11 | 17.59 ± 0.089 | 14.21 ± 0.073
x2 = 0.1563 | 805.499 ± 0.42 | 802.234 ± 0.42 | 798.947 ± 0.42 | 1376.9 ± 0.9 | 1359.3 ± 0.8 | 1341.5 ± 0.8 | 20.12 ± 0.1 | 16.25 ± 0.083 | 13.14 ± 0.068
x2 = 0.2092 | 805.773 ± 0.42 | 802.479 ± 0.42 | 799.184 ± 0.42 | 1375.7 ± 0.9 | 1357.8 ± 0.8 | 1340.2 ± 0.8 | 18.81 ± 0.095 | 15.26 ± 0.078 | 12.34 ± 0.065
x2 = 0.2648 | 806.107 ± 0.42 | 802.799 ± 0.42 | 799.487 ± 0.42 | 1374.2 ± 0.9 | 1356.4 ± 0.8 | 1338.7 ± 0.8 | 17.88 ± 0.09 | 14.5 ± 0.075 | 11.73 ± 0.062
x2 = 0.3404 | 806.637 ± 0.42 | 803.312 ± 0.42 | 799.989 ± 0.42 | 1372.4 ± 0.9 | 1354.5 ± 0.8 | 1336.8 ± 0.8 | 16.97 ± 0.086 | 13.74 ± 0.071 | 11.13 ± 0.059
x2 = 0.398 | 807.105 ± 0.42 | 803.775 ± 0.42 | 800.439 ± 0.42 | 1370.8 ± 0.9 | 1352.9 ± 0.8 | 1335.3 ± 0.8 | 16.38 ± 0.083 | 13.24 ± 0.069 | 10.72 ± 0.057
x2 = 0.4799 | 807.875 ± 0.42 | 804.507 ± 0.42 | 801.188 ± 0.42 | 1368.6 ± 0.8 | 1350.7 ± 0.8 | 1333.1 ± 0.8 | 15.42 ± 0.079 | 12.45 ± 0.065 | 10.12 ± 0.054
x2 = 0.5974 | 809.279 ± 0.42 | 805.92 ± 0.42 | 802.536 ± 0.42 | 1364.9 ± 0.8 | 1347.1 ± 0.8 | 1329.5 ± 0.8 | 13.55 ± 0.07 | 11.01 ± 0.058 | 9.007 ± 0.049
x2 = 0.6988 | 810.937 ± 0.42 | 807.538 ± 0.42 | 804.116 ± 0.42 | 1361.3 ± 0.8 | 1343.7 ± 0.8 | 1326.1 ± 0.8 | 11.51 ± 0.06 | 9.441 ± 0.051 | 7.786 ± 0.043
x2 = 0.8079 | 813.477 ± 0.42 | 810.008 ± 0.42 | 806.567 ± 0.42 | 1356.9 ± 0.8 | 1339.5 ± 0.8 | 1322.1 ± 0.8 | 9.294 ± 0.05 | 7.693 ± 0.043 | 6.416 ± 0.037
x2 = 0.8519 | 814.812 ± 0.42 | 811.352 ± 0.42 | 807.925 ± 0.42 | 1355.2 ± 0.8 | 1337.8 ± 0.8 | 1320.4 ± 0.8 | 8.533 ± 0.047 | 7.093 ± 0.04 | 5.937 ± 0.034
x2 = 0.8942 | 816.384 ± 0.42 | 812.92 ± 0.42 | 809.463 ± 0.42 | 1353.2 ± 0.8 | 1335.9 ± 0.8 | 1318.7 ± 0.8 | 7.963 ± 0.044 | 6.624 ± 0.038 | 5.572 ± 0.033
x2 = 0.9474 | 818.773 ± 0.42 | 815.429 ± 0.42 | 811.955 ± 0.42 | 1350.6 ± 0.8 | 1333.5 ± 0.8 | 1316.4 ± 0.8 | 7.526 ± 0.042 | 6.288 ± 0.036 | 5.31 ± 0.031

CCCCCCCCO [octan-1-ol] + CC(C)CCCC(C)CCCC(C)CCCCC(C)CCCC(C)CCCC(C)C
x1 = 1
Conditions | mass density [kg/m3] | speed of sound [m/s] | viscosity [mPa·s]
293.15 K | 821.813 ± 0.42 | 1348 ± 0.8 | –
298.15 K | – | – | 7.506 ± 0.042
303.15 K | 818.796 ± 0.42 | 1330.8 ± 0.8 | 6.344 ± 0.036
308.15 K | 815.286 ± 0.42 | 1314.1 ± 0.8 | 5.363 ± 0.032
